The record followed here is patent US20240309016A1, “MACROCYCLIC HETEROCYCLE COMPOUNDS AND USE THEREOF” (TAKEDA PHARMACEUTICAL COMPANY LIMITED, priority 2023, published 2024).

This assay has as its target T1, human OX2 receptor (Homo sapiens, UniProt O43614).
T1 construct: expressed in transfected cells
T1 sequence (O43614 1-444): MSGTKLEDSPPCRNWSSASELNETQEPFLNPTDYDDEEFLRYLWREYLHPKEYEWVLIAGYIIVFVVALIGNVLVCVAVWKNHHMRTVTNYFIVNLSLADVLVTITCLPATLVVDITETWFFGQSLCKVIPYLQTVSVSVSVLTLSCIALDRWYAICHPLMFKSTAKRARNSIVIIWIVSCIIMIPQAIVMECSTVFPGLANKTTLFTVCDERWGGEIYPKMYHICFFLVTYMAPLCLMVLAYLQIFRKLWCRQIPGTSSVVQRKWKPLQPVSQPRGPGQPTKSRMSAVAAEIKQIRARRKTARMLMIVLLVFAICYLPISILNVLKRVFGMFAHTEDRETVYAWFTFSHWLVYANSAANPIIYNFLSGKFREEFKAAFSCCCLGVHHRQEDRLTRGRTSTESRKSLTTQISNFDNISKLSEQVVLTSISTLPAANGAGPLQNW
The assay is described as follows: Measurement of orexin type 2 receptor agonist activity (Experimental Example 2; Fluo-4 AM calcium fluorescence, FDSS μCELL). Particulars: compound at 3 μM; CHO cells expressing human OX2 receptor; DMSO = 0%, 10 nM orexin A (human) = 100%. It is filed as cell-based. The essentials:
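Agonism was tested in CHO-K1 cells stably expressing human OX2 receptor (residues 1-444), loaded with Fluo-4 AM plus probenecid. Calcium fluorescence was recorded for 1 min 40 s after compound addition. Activity (%) was scaled between DMSO (0%) and 10 nM orexin A (100%) and reported at 3 μM compound.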
As to `CCS(=O)(=O)N[C@H]1[C@@H](F)CN2C(=O)COc3ccc(Cl)c(n3)Cc3cccc(c3F)C[C@@H]12` [Example 72, N-[(15aS,16R,17S)-7-chloro-17,20-difluoro-1-oxo-1,2,15a,16,17,18-hexahydro-9H,15H-4,8-(azeno)-14,10-(metheno)pyrrolo[1,2-d][1,4]oxazacycloheptadecin-16-yl]ethanesulfonamide], the “OX2R agonist activity (3 μM, %)” value came to 104%.
The same measure for `CCS(=O)(=O)N[C@H]1[C@@H](F)CN2C(=O)N(C)Cc3ccc(Cl)c(n3)Oc3cccc(c3F)C[C@@H]12` [Example 73, N-[(15aS,16R,17S)-7-chloro-17,20-difluoro-2-methyl-1-oxo-2,3,15a,16,17,18-hexahydro-1H,15H-4,8-(azeno)-10,14-(metheno)pyrrolo[1,2-j][1,8,10]oxadiazacyclo-heptadecin-16-yl]ethanesulfonamide]: 101%.
The same measure for `Cc1cnc2nc1Oc1cccc(c1F)C[C@H]1[C@@H](NS(C)(=O)=O)C(F)(F)CN1C(=O)[C@@H]1C[C@@H](F)CN21` [Example 74, N-[(2R,16aS,17R,21aS)-2,18,18,22-tetrafluoro-8-methyl-21-oxo-2,3,16a,17,18,19,21,21a-octahydro-1H,16H-5,9-(azeno)-11,15-(metheno)dipyrrolo[1,2-g:1′,2′-j][1,5,7,10]oxatriazacyclo-heptadecin-17-yl]methanesulfonamide]: 96%.
As for `Cc1cnc2nc1Oc1cccc(c1F)C[C@H]1[C@@H](NS(C)(=O)=O)C(F)(F)CN1C(=O)CN2C` [Example 75, N-[(15aS,16R)-17,17,20-trifluoro-3,7-dimethyl-1-oxo-2,3,15a,16,17,18-hexahydro-1H,15H-4,8-(azeno)-10,14-(metheno)pyrrolo[1,2-j][1,5,7,10]oxatriazacyclo-heptadecin-16-yl]methanesulfonamide], the figure is 95%; as for `CCS(=O)(=O)N[C@H]1[C@@H](F)CN2C(=O)COc3ccc(Br)c(n3)Oc3cccc(c3)C[C@@H]12` [Example 76, N-[(15aS,16R,17S)-7-bromo-17-fluoro-1-oxo-1,2,15a,16,17,18-hexahydro-15H-4,8-(azeno)-14,10-(metheno)pyrrolo[1,2-d][1,12,4]dioxazacyclo-heptadecin-16-yl]ethanesulfonamide], 96%.
For the compound `Cc1cnc2nc1Oc1cccc(c1F)C[C@H]1[C@@H](NS(C)(=O)=O)C(F)(F)CN1C(=O)CO2` [Example 77, N-[(15aS,16R)-17,17,20-trifluoro-7-methyl-1-oxo-1,2,15a,16,17,18-hexahydro-15H-4,8-(azeno)-10,14-(metheno)pyrrolo[2,1-n][1,7,3,15]dioxadiazacyclo-heptadecin-16-yl]methanesulfonamide], the “OX2R agonist activity (3 μM, %)” value was found to be 104%.
As for `CCS(=O)(=O)N[C@H]1[C@@H](F)CN2C(=O)COc3ccc(C)c(n3)Oc3cccc(c3)C[C@@H]12` [Example 78, N-[(15aS,16R,17S)-17-fluoro-7-methyl-1-oxo-1,2,15a,16,17,18-hexahydro-15H-4,8-(azeno)-14,10-(metheno)pyrrolo[1,2-d][1,12,4]dioxazacyclo-heptadecin-16-yl]ethanesulfonamide], the figure is 97%; as for `CCc1ccc2nc1Oc1cccc(c1F)C[C@H]1[C@@H](NS(C)(=O)=O)C(F)(F)CN1C(=O)NC2` [Example 79, N-[(15aS,16R)-7-ethyl-17,17,20-trifluoro-1-oxo-2,3,15a,16,17,18-hexahydro-1H,15H-4,8-(azeno)-14,10-(metheno)pyrrolo[1,2-j][1,8,10]oxadiazacyclo-heptadecin-16-yl]methanesulfonamide], 102%; as for `CCS(=O)(=O)N[C@H]1[C@@H](F)CN2C(=O)COc3ccc(Cl)c(n3)Oc3cccc(c3F)C[C@@H]12` [Example 80, N-[(15aS,16R,17S)-7-chloro-17,20-difluoro-1-oxo-1,2,15a,16,17,18-hexahydro-15H-4,8-(azeno)-14,10-(metheno)pyrrolo[1,2-d][1,12,4]dioxazacyclo-heptadecin-16-yl]ethanesulfonamide], 100%.
The same measure for `CCS(=O)(=O)N[C@@H]1[C@@H]2Cc3cccc(c3F)Oc3nc(cnc3C)OCC(=O)N2CC1(F)F` [Example 81, N-[(15aS,16R)-17,17,20-trifluoro-7-methyl-1-oxo-1,2,15a,16,17,18-hexahydro-15H-4,8-(azeno)-10,14-(metheno)pyrrolo[1,2-j][1,7,4,10]dioxadiazacyclo-heptadecin-16-yl]ethanesulfonamide]: 102%.
The same measure for `CCS(=O)(=O)N[C@H]1[C@@H](F)CN2C(=O)CCc3ccc(Cl)c(n3)Oc3cccc(c3F)C[C@@H]12` [Example 82, N-[(1R,2S,19aS)-11-chloro-2,20-difluoro-5-oxo-2,3,6,7,19,19a-hexahydro-1H,5H-12,8-(azeno)-14,18-(metheno)pyrrolo[2,1-h][1,9]oxazacycloheptadecin-1-yl]ethanesulfonamide]: 101%; for `CO[C@@H]1C[C@H]2C(=O)N3CC(F)(F)[C@H](NS(C)(=O)=O)[C@@H]3Cc3cccc(c3F)Oc3nc(ncc3C)N2C1` [Example 83, N-[(2R,16aS,17R,21aS)-18,18,22-trifluoro-2-methoxy-8-methyl-21-oxo-2,3,16a,17,18,19,21,21a-octahydro-1H,16H-5,9-(azeno)-11,15-(metheno)dipyrrolo[1,2-g:1′,2′-j][1,5,7,10]oxatriazacyclo-heptadecin-17-yl]methanesulfonamide]: 96%; for `Cc1ccc2nc1OCc1cccc(c1F)C[C@H]1[C@@H](NS(C)(=O)=O)C(F)(F)CN1C(=O)NC2` [Example 84, N-[(16aS,17R)-18,18,21-trifluoro-7-methyl-1-oxo-2,3,16a,17,18,19-hexahydro-1H,10H,16H-4,8-(azeno)-15,11-(metheno)pyrrolo[1,2-j][1,8,10]oxadiazacyclo-octadecin-17-yl]methanesulfonamide]: 104%.
As to `CS(=O)(=O)N[C@@H]1[C@@H]2Cc3cccc(c3F)Oc3nc(cs3)CNC(=O)N2CC1(F)F` [Example 85, N-[(14aS,15R)-16,16,19-trifluoro-1-oxo-2,3,14a,15,16,17-hexahydro-1H,14H-4,7-(azeno)-9,13-(metheno)pyrrolo[1,2-i][1,3,7,9]oxathiadiazacyclo-hexadecin-15-yl]methanesulfonamide], the “OX2R agonist activity (3 μM, %)” value stood at 95%.
As for `CCS(=O)(=O)N[C@H]1[C@@H](F)CN2C(=O)COc3ccc(C(F)F)c(n3)Oc3cccc(c3)C[C@@H]12` [Example 87, N-[(15aS,16R,17S)-7-(difluoromethyl)-17-fluoro-1-oxo-1,2,15a,16,17,18-hexahydro-15H-4,8-(azeno)-14,10-(metheno)pyrrolo[1,2-d][1,12,4]dioxazacyclo-heptadecin-16-yl]ethanesulfonamide], the figure is 105%; as for `CS(=O)(=O)N[C@@H]1[C@@H]2Cc3cccc(c3F)Oc3nc(ccc3C3CC3)CNC(=O)N2CC1(F)F` [Example 88, N-[(15aS,16R)-7-cyclopropyl-17,17,20-trifluoro-1-oxo-2,3,15a,16,17,18-hexahydro-1H,15H-4,8-(azeno)-14,10-(metheno)pyrrolo[1,2-j][1,8,10]oxadiazacyclo-heptadecin-16-yl]methanesulfonamide], 109%; as for `CS(=O)(=O)N[C@@H]1[C@@H]2Cc3cccc(c3)Oc3nc(ccc3Cl)CNC(=O)N2CC1(F)F` [Example 92, N-[(15aS,16R)-7-chloro-17,17-difluoro-1-oxo-2,3,15a,16,17,18-hexahydro-1H,15H-4,8-(azeno)-14,10-(metheno)pyrrolo[1,2-j][1,8,10]oxadiazacyclohepta-decin-16-yl]methanesulfonamide], 106%.
As for `CS(=O)(=O)N[C@@H]1[C@@H]2Cc3cccc(c3)Oc3nc(ccc3C(F)F)CNC(=O)N2CC1(F)F` [Example 93, N-[(15aS,16R)-7-(difluoromethyl)-17,17-difluoro-1-oxo-2,3,15a,16,17,18-hexahydro-1H,15H-4,8-(azeno)-14,10-(metheno)pyrrolo[1,2-j][1,8,10]oxadiazacyclohepta-decin-16-yl]methanesulfonamide], the figure is 109%; as for `CS(=O)(=O)N[C@@H]1[C@@H]2Cc3cccc(c3F)COc3nc(ccc3Cl)CNC(=O)N2CC1(F)F` [Example 94, N-[(16aS,17R)-7-chloro-18,18,21-trifluoro-1-oxo-2,3,16a,17,18,19-hexahydro-1H,10H,16H-4,8-(azeno)-15,11-(metheno)pyrrolo[1,2-j][1,8,10]oxadiazacycloocta-decin-17-yl]methanesulfonamide], 109%; as for `CS(=O)(=O)N[C@@H]1[C@@H]2Cc3cccc(c3)Oc3nc(ccc3Cl)OCC(=O)N2CC1(F)F` [Example 96, N-[(15aS,16R)-7-chloro-17,17-difluoro-1-oxo-1,2,15a,16,17,18-hexahydro-15H-4,8-(azeno)-14,10-(metheno)pyrrolo[1,2-d][1,12,4]dioxazacyclo-heptadecin-16-yl]methanesulfonamide], 107%.
